# Test results: ChEMBL document CHEMBL5338744, “Development and Characterization of Benzoselenazole Derivatives as Potent and Selective c-MYC Transcription Inhibitors” (J Med Chem, 2023)
# Activity calls are given as the source filed them. The rule behind the calls is not given here.
# Key:
# HepG2 [1] = test: Cytotoxicity against human HepG2 cells assessed as reduction in cell viability incubated for 48 hrs by MTT assay; assay type: functional, cell-based; conditions: HepG2, 48 h
# HCT-116 = test: Cytotoxicity against human HCT-116 cells assessed as reduction in cell viability incubated for 48 hrs by MTT assay; assay type: functional, cell-based; conditions: HCT-116, 48 h
# [2] = Cytotoxicity against human NCM460 cells assessed as reduction in cell viability incubated for 48 hrs by MTT assay; assay type: toxicity, cell-based
# Quadruplex DNA [3] = test: Binding affinity to G-quadruplex DNA pu22 (unknown origin) by fluorescence spectroscopic analysis; assay type: nucleic-acid assay
# Quadruplex DNA [4] = test: Binding affinity to G-quadruplex DNA pu22 mutant (unknown origin) by fluorescence spectroscopic analysis; assay type: nucleic-acid assay
# Quadruplex DNA [5] = test: Binding affinity to G-quadruplex DNA c-kit1 (unknown origin) by fluorescence spectroscopic analysis; assay type: nucleic-acid assay
# Quadruplex DNA [6] = test: Binding affinity to G-quadruplex DNA VEGF (unknown origin) by fluorescence spectroscopic analysis; assay type: nucleic-acid assay
# Quadruplex DNA [7] = test: Binding affinity to G-quadruplex DNA HRAS (unknown origin) by fluorescence spectroscopic analysis; assay type: nucleic-acid assay
# Quadruplex DNA [8] = test: Binding affinity to G-quadruplex DNA htg22 (unknown origin) by fluorescence spectroscopic analysis; assay type: nucleic-acid assay
# Quadruplex DNA [9] = test: Binding affinity to G-quadruplex DNA ds26 (unknown origin) by fluorescence spectroscopic analysis; assay type: nucleic-acid assay
# HepG2 [10] = test: Inhibition of c-MYC transcription in human HepG2 cells up to 10 uM incubated for 48 hrs by RT-qPCR analysis; assay type: functional, cell-based
# HepG2 [11] = test: Downregulation of c-MYC expression level in human HepG2 cells incubated for 48 hrs by Western blotting analysis; assay type: functional, cell-based; conditions: dose 0-10 µM
# [12] = Cytotoxicity against human L02 cells assessed as reduction in cell viability incubated for 48 hrs by MTT assay; assay type: toxicity, cell-based
# Quadruplex DNA [13] = test: Binding affinity to G-quadruplex DNA pu22 (unknown origin) assessed as melting temperature at 10 uM by circular dichroism analysis
# CA46 = test: Inhibition of c-MYC G-quadruplex exon 1 transcription in human CA46 cells incubated for 48 hrs by RT-qPCR analysis; assay type: functional, cell-based; conditions: dose 1.25-2.5 µM
# [14] = Disruption of NM23-H2/c-MYC G quadruplex DNA (unknown origin) interaction incubated for 1 hr by ELISA
# HepG2 [15] = test: Disruption of NM23-H2/c-MYC G quadruplex DNA interaction in human HepG2 cells at 1.25 uM incubated for 1 hr by ChIP assay; assay type: cell-based
# HepG2 [16] = test: Inhibition of colony formation in human HepG2 cells at 1 uM measured after 14 days by crystal violet staining based assay; assay type: functional, cell-based; conditions: time 14.0 day
# HepG2 [17] = test: Effect on cell cycle distribution in human HepG2 cells assessed as accumulation of cells in S phase at 1.25 to 5 uM incubated for 48 hrs by PI staining based flow cytometric analysis; assay type: functional; conditions: dose 1.25-5 µM
# HepG2 [18] = test: Induction of apoptosis in human hepG2 cells assessed as early apoptotic cells at 1.25 to 5 uM incubated for 48 hrs by Annexin V-FITC and propidium iodide staining based flow cytometric analysis; assay type: functional; conditions: dose 1.25-5 µM
# [19] = Toxicity in nude mouse assessed as changes in body weight at 30 mg/kg administered for 5 days; assay type: organism-based; conditions: in vivo, 120 h, time 5 day
# [20] = Toxicity in nude mouse assessed as mortality at 30 mg/kg administered for 5 days; assay type: organism-based; conditions: in vivo, 120 h, time 5 day
# HepG2 [21] = test: Antitumor activity against human HepG2 cells xenografted in BALB/C-nu/nu mouse assessed as reduction in tumor volume at 15 mg/kg, ip administered every other day for 28 days; assay type: functional, organism-based; conditions: time 28.0 day
# HepG2 [22] = test: Antitumor activity against human HepG2 cells xenografted in BALB/C-nu/nu mouse assessed as reduction in tumor weight at 15 mg/kg, ip administered every other day for 28 days; assay type: functional, organism-based; conditions: time 28.0 day
# HepG2 [23] = test: Antitumor activity against human HepG2 cells xenografted in BALB/C-nu/nu mouse assessed as tumor growth inhibition at 15 mg/kg, ip administered every other day for 28 days; assay type: functional; conditions: HepG2, 672 h, time 28 day, read-out: TGI
# [24] = Toxicity in BALB/C-nu/nu mouse xenografted with human HepG2 cells assessed as sign of pain at 15 mg/kg, ip administered every other day for 28 days; assay type: organism-based; conditions: in vivo, 672 h, time 28 day
# [25] = Toxicity in BALB/C-nu/nu mouse xenografted with human HepG2 cells assessed as sign of distress at 15 mg/kg, ip administered every other day for 28 days; assay type: organism-based; conditions: in vivo, 672 h, time 28 day
# [26] = Toxicity in BALB/C-nu/nu mouse xenografted with human HepG2 cells assessed as sign of discomfort at 15 mg/kg, ip administered every other day for 28 days; assay type: organism-based; conditions: in vivo, 672 h, time 28 day
# [27] = Toxicity in BALB/C-nu/nu mouse xenografted with human HepG2 cells assessed as changes in body weight at 15 mg/kg, ip administered every other day for 28 days; assay type: organism-based; conditions: in vivo, 672 h, time 28 day
# [28] = Toxicity in BALB/C-nu/nu mouse xenografted with human HepG2 cells assessed as abnormality in heart at 15 mg/kg, ip administered every other day for 28 days by hematoxylin and eosin staining method; assay type: organism-based; conditions: in vivo, 672 h, time 28 day
# [29] = Toxicity in BALB/C-nu/nu mouse xenografted with human HepG2 cells assessed as abnormality in liver at 15 mg/kg, ip administered every other day for 28 days by hematoxylin and eosin staining method; assay type: organism-based; conditions: in vivo, 672 h, time 28 day
# [30] = Toxicity in BALB/C-nu/nu mouse xenografted with human HepG2 cells assessed as abnormality in spleen at 15 mg/kg, ip administered every other day for 28 days by hematoxylin and eosin staining method; assay type: organism-based; conditions: in vivo, 672 h, time 28 day
# [31] = Toxicity in BALB/C-nu/nu mouse xenografted with human HepG2 cells assessed as abnormality in lung at 15 mg/kg, ip administered every other day for 28 days by hematoxylin and eosin staining method; assay type: organism-based; conditions: in vivo, 672 h, time 28 day
# [32] = Toxicity in BALB/C-nu/nu mouse xenografted with human HepG2 cells assessed as abnormality in kidney at 15 mg/kg, ip administered every other day for 28 days by hematoxylin and eosin staining method; assay type: organism-based; conditions: in vivo, 672 h, time 28 day
# HepG2 [33] = test: Antitumor activity against human HepG2 cells xenografted in BALB/C-nu/nu mouse assessed as decrease in c-MYC expression in tumor tissue at 15 mg/kg, ip administered every other day for 28 days by immunohistochemical analysis; assay type: functional, organism-based; conditions: time 28.0 day
structure (smiles),measurement,setting,value
CCn1c2ccccc2c2cc(/C=C/c3nc4ccccc4[se]3)ccc21,IC50,HepG2 [1],13.4 µM
same,IC50,HCT-116,19.5 µM
same,IC50 at 48 h,[2],> 100 µM
CCn1c2ccccc2c2cc(/C=C/c3nc4c(ccc5ccccc54)[se]3)ccc21,IC50,HepG2 [1],> 100 µM
same,IC50,HCT-116,> 100 µM
same,IC50 at 48 h,[2],> 100 µM
CN(C)CCCn1c2ccccc2c2cc(/C=C/c3sc4ccccc4[n+]3C)ccc21,IC50,HepG2 [1],11.3 µM
same,IC50,HCT-116,14.7 µM
same,IC50 at 48 h,[2],30.2 µM
CN(C)CCCn1c2ccccc2c2cc(/C=C/c3[se]c4ccccc4[n+]3C)ccc21,IC50,HepG2 [1],26.2 µM
same,IC50,HCT-116,15 µM
same,IC50 at 48 h,[2],87.7 µM
C(=C\c1nc2ccccc2s1)/c1ccc2c(c1)c1ccccc1n2Cc1ccccc1,IC50,HepG2 [1],53.2 µM
same,IC50,HCT-116,> 100 µM
same,IC50 at 48 h,[2],> 100 µM
C[n+]1c(/C=C/c2ccc3c(c2)c2ccccc2n3Cc2ccccc2)sc2ccccc21,IC50,HepG2 [1],7.4 µM
same,IC50,HCT-116,4.1 µM
same,IC50 at 48 h,[2],45.6 µM
CCn1c2ccccc2c2cc(/C=C/c3nc4ccccc4o3)ccc21,IC50,HepG2 [1],37.7 µM
same,IC50,HCT-116,32.1 µM
same,IC50 at 48 h,[2],> 100 µM
CCn1c2ccccc2c2cc(/C=C/c3sc4ccc5ccccc5c4[n+]3C)ccc21,IC50,HepG2 [1],8.3 µM
same,IC50,HCT-116,2.5 µM
same,IC50 at 48 h,[2],26.1 µM
C(=C\c1nc2ccccc2o1)/c1ccc2c(c1)c1ccccc1n2Cc1ccccc1,IC50,HepG2 [1],5.7 µM
same,IC50,HCT-116,25.9 µM
same,IC50 at 48 h,[2],> 100 µM
C(=C\c1nc2ccccc2[se]1)/c1ccc2c(c1)c1ccccc1n2Cc1ccccc1,IC50,HepG2 [1],> 100 µM
same,IC50,HCT-116,> 100 µM
same,IC50 at 48 h,[2],> 100 µM
CCn1c2ccccc2c2cc(/C=C/c3nc4c(ccc5ccccc54)s3)ccc21,IC50,HepG2 [1],58.7 µM
same,IC50,HCT-116,> 100 µM
same,IC50 at 48 h,[2],> 100 µM
CCn1c2ccccc2c2cc(/C=C/c3[se]c4ccc5ccccc5c4[n+]3C)ccc21,IC50,HepG2 [1],4.5 µM
same,IC50,HCT-116,9 µM
same,IC50 at 48 h,[2],42.5 µM
CN(C)CCCn1c2ccccc2c2cc(/C=C/c3nc4ccccc4s3)ccc21,IC50,HepG2 [1],21.3 µM
same,IC50,HCT-116,42.9 µM
same,IC50 at 48 h,[2],> 100 µM
CCn1c2ccccc2c2cc(/C=C/c3[se]c4ccccc4[n+]3C)ccc21,Kd,Quadruplex DNA [3],0.4 µM
same,IC50,HepG2 [1],1.6 µM
same,IC50,HCT-116,3.4 µM
same,IC50 at 48 h,[2],29.2 µM
same,Kd,Quadruplex DNA [4],> 20 µM
same,Kd,Quadruplex DNA [5],6.5 µM
same,Kd,Quadruplex DNA [6],7.6 µM
same,Kd,Quadruplex DNA [7],> 20 µM
same,Kd,Quadruplex DNA [8],8.8 µM
same,Kd,Quadruplex DNA [9],> 20 µM
same,inhibition,HepG2 [10],Active
same,Activity,HepG2 [11],Dose-Dependent Effect
same,IC50 at 48 h,[12],27.3 µM
same,Tm,Quadruplex DNA [13],80.1 °C
CCn1c2ccccc2c2cc(/C=C/c3oc4ccccc4[n+]3C)ccc21,IC50,HepG2 [1],43.3 µM
same,IC50,HCT-116,46.7 µM
same,IC50 at 48 h,[2],> 100 µM
CCn1c2ccccc2c2cc(/C=C/c3oc4ccc5ccccc5c4[n+]3C)ccc21,IC50,HepG2 [1],93.3 µM
same,IC50,HCT-116,26.3 µM
same,IC50 at 48 h,[2],> 100 µM
CN(C)CCCn1c2ccccc2c2cc(/C=C/c3nc4ccccc4[se]3)ccc21,IC50,HepG2 [1],> 100 µM
same,IC50,HCT-116,34.4 µM
same,IC50 at 48 h,[2],> 100 µM
CCn1c2ccccc2c2cc(/C=C/c3sc4ccccc4[n+]3C)ccc21,IC50,HepG2 [1],5.7 µM
same,IC50,HCT-116,4 µM
same,IC50 at 48 h,[2],39.3 µM
CN(C)CCCn1c2ccccc2c2cc(/C=C/c3nc4ccccc4o3)ccc21,IC50,HepG2 [1],21.6 µM
same,IC50,HCT-116,36.9 µM
same,IC50 at 48 h,[2],> 100 µM
C[n+]1c(/C=C/c2ccc3c(c2)c2ccccc2n3Cc2ccccc2)oc2ccccc21,IC50,HepG2 [1],96.2 µM
same,IC50,HCT-116,32.3 µM
same,IC50 at 48 h,[2],> 100 µM
CCn1c2ccccc2c2cc(/C=C/c3nc4ccccc4s3)ccc21,IC50,HepG2 [1],52.1 µM
same,IC50,HCT-116,> 100 µM
same,IC50 at 48 h,[2],> 100 µM
CN(C)CCCn1c2ccccc2c2cc(/C=C/c3oc4ccccc4[n+]3C)ccc21,IC50,HepG2 [1],5.9 µM
same,IC50,HCT-116,4.7 µM
same,IC50 at 48 h,[2],35.6 µM
C[n+]1c(/C=C/c2ccc3c(c2)c2ccccc2n3Cc2ccccc2)[se]c2ccccc21.[I-],Kd,Quadruplex DNA [3],0.9 µM
same,IC50,HepG2 [1],3.5 µM
same,IC50,HCT-116,4.1 µM
same,IC50 at 48 h,[2],77.6 µM
same,Kd,Quadruplex DNA [4],> 20 µM
same,Kd,Quadruplex DNA [5],9.6 µM
same,Kd,Quadruplex DNA [6],17.9 µM
same,Kd,Quadruplex DNA [7],> 20 µM
same,Kd,Quadruplex DNA [8],> 20 µM
same,Kd,Quadruplex DNA [9],> 20 µM
same,inhibition,HepG2 [10],Active
same,Activity,HepG2 [11],Dose-Dependent Effect
same,IC50 at 48 h,[12],> 100 µM
same,inhibition,CA46,Dose-Dependent Effect
same,IC50,[14],9.8 µM
same,Activity,HepG2 [15],Active
same,inhibition,HepG2 [16],Active
same,Activity,HepG2 [17],14.6%
same,Activity,HepG2 [18],1.7%
same,Activity,[19],Toxic
same,Activity,[20],Toxic
same,Activity,HepG2 [21],Active
same,Activity,HepG2 [22],Active
same,inhibition in vivo at 15 mg/kg,HepG2 [23],65.8%
same,Activity,[24],Non-Toxic
same,Activity,[25],Non-Toxic
same,Activity,[26],Non-Toxic
same,Activity,[27],Non-Toxic
same,Activity,[28],Non-Toxic
same,Activity,[29],Non-Toxic
same,Activity,[30],Non-Toxic
same,Activity,[31],Non-Toxic
same,Activity,[32],Non-Toxic
same,Activity,HepG2 [33],Active
same,Tm,Quadruplex DNA [13],78.3 °C
CCn1c2ccccc2c2cc(/C=C/c3nc4c(ccc5ccccc54)o3)ccc21,IC50,HepG2 [1],> 100 µM
same,IC50,HCT-116,> 100 µM
same,IC50 at 48 h,[2],> 100 µM
